The values that follow come from ChEMBL document CHEMBL3639216, “Compounds and method for treatment of HIV” (2015).

This experiment has as its target Gag-Pol polyprotein (Human immunodeficiency virus type 1 group M subtype A (isolate U455)(HIV-1), UniProt P24740). Put plainly: Integrase Assay: The effect of each compound on HIV integrase activity was assayed using the HIV-1 Integrase Assay Kit version 2.0, catalogue number EZ-1700 obtained from XpressBio Life Science Products. Immediately prior to the start of the assay, both compounds were dissolved in dimethyl sulfoxide (DMSO) and used immediately in the HIV integration assay. The assay was performed according to the instructions listed by the manufacturer (XpressBio Life Science Products, Maryland, USA). In brief, the required streptavidin-coated strip wells were coated with DS oligo and placed overnight at 4° C. The plates were then incubated with integrase and followed by the addition of test articles at the desired concentration. The plates were developed using the supplied HRP antibody and TMB peroxidase substrate as per the manufacturer's instructions. The reactions were stopped with TMB stop solution and immediately read (<10 min) using a VICTOR XXX. The absorbance of each well was read at 450 nm for 0.5 sec.

Gag-Pol polyprotein, sequence (P24740 1141-1428 limits assumed): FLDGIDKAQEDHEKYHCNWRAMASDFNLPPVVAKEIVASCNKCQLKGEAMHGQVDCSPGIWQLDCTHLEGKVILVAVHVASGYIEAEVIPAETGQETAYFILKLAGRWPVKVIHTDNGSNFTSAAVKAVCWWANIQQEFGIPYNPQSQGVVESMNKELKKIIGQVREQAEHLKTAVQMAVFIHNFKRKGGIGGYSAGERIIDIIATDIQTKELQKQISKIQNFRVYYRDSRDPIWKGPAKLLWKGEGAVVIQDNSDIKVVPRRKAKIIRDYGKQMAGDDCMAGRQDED

In general, IC50 refers to the concentration that gives 50% inhibition. Higher therefore signals a need for much substance. In turn, `Cn1cnc(-c2nnc(Cc3ccc(F)cc3)o2)c(O)/c1=N/O` returned an IC50 of 58.7 µM.
The molecule `Cn1nc(-c2nnc(Cc3ccc(F)cc3)o2)/c(=N/O)c2ncccc21` displayed an IC50 of 23.9 µM.
